Converted amounts (≈) assume the structure as drawn.
What was measured:
Assay in all cases: Broth microdilution MIC in iron-depleted CAMHB (IDM)
Assay type in all cases: cell-based
[1] = test system: A. baumannii CDC-0083 producing NDM-1, PER-7, OXA-23, and OXA-69; conditions: Acinetobacter baumannii, read-out: Minimum Inhibitory Concentration, CDC-0083
In short: (§1)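 MIC read by eye as the lowest concentration with no bacterial growth, following CLSI microdilution in iron-depleted cation-adjusted Mueller-Hinton broth at pH 7.3. Starting inoculum 2-8×10^5 CFU/mL; incubation 37° C, 16-20 h for Pseudomonas, 20-24 h for Acinetobacter.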

P. aeruginosa ATCC 27853 = conditions: Pseudomonas aeruginosa, ATCC27853, read-out: Minimum Inhibitory Concentration, P. aeruginosa ATCC 27853
In short: as §1

[2] = test system: A. baumannii CDC-0033 producing NDM-1, and OXA-94; conditions: Acinetobacter baumannii, read-out: Minimum Inhibitory Concentration, CDC-0033
In short: as §1

[3] = test system: P. aeruginosa (ΔmexAB-oprM); conditions: Pseudomonas aeruginosa, read-out: Minimum Inhibitory Concentration, P. aeruginosa ΔmexAB-OprM
In short: as §1

P. aeruginosa ATCC 35151 = conditions: Pseudomonas aeruginosa, ATCC35151; iron-depleted MHB (IDM); hyper-permeable strain; read-out: Minimum Inhibitory Concentration, P. aeruginosa ATCC 35151
In short: as §1

A. baumannii ATCC 17978 = conditions: Acinetobacter baumannii, ATCC17978, read-out: Minimum Inhibitory Concentration, ATCC 17978
In short: as §1

A. baumannii ATCC 19606 = conditions: Acinetobacter baumannii, ATCC19606, read-out: Minimum Inhibitory Concentration, ATCC 19606
In short: as §1

[4] = test system: P. aeruginosa CDC-0054 producing VIM-4, OXA-50, and PAO; conditions: Pseudomonas aeruginosa, read-out: Minimum Inhibitory Concentration, P. aeruginosa CDC-0054
In short: as §1

[5] = test system: P. aeruginosa CDC-0090 producing KPC-5, OXA-50, and PAO; conditions: Pseudomonas aeruginosa, read-out: Minimum Inhibitory Concentration, P. aeruginosa CDC-0090
In short: as §1

[6] = test system: P. aeruginosa CDC-0095 producing OXA-50, and PAO; conditions: Pseudomonas aeruginosa, read-out: Minimum Inhibitory Concentration, P. aeruginosa CDC-0095
In short: as §1

[7] = test system: A. baumannii CDC-0036 OXA-65, and OXA-24; conditions: Acinetobacter baumannii, read-out: Minimum Inhibitory Concentration, CDC-0036
In short: as §1

[8] = test system: A. baumannii CDC-0045 producing TEM-1D, OXA-23, and OXA-69; conditions: Acinetobacter baumannii, read-out: Minimum Inhibitory Concentration, CDC-0045

Row | SMILES | MIC [1] [µg/mL] | MIC (P. aeruginosa ATCC 27853) [µg/mL] | MIC [2] [µg/mL] | MIC [3] [µg/mL] | MIC (P. aeruginosa ATCC 35151) [µg/mL] | MIC (A. baumannii ATCC 17978) [µg/mL] | MIC (A. baumannii ATCC 19606) [µg/mL] | MIC [4] [µg/mL] | MIC [5] [µg/mL] | MIC [6] [µg/mL] | MIC [7] [µg/mL] | MIC [8] [µg/mL]
1 | CS(=O)(=O)N1CCN(C(=O)N[C@@H](C(=O)N[C@H]2Cc3ccc(F)c(C(=O)O)c3OB2O)c2cc(F)c(O)c(O)c2Cl)C1=O (single isomer, unassigned) [Example 189] | 32 to 64 (≈ 50.6 to 101 µM) | 0.5 to 1 (≈ 0.79 to 1.58 µM) | 2 to 4 (≈ 3.16 to 6.32 µM) | 0.25 (≈ 0.395 µM) | 0.25 (≈ 0.395 µM) | 0.25 (≈ 0.395 µM) | 0.5 to 1 (≈ 0.79 to 1.58 µM) | 0.5 to 1 (≈ 0.79 to 1.58 µM) | 0.5 to 1 (≈ 0.79 to 1.58 µM) | 2 to 4 (≈ 3.16 to 6.32 µM) | 2 to 4 (≈ 3.16 to 6.32 µM) | 2 to 4 (≈ 3.16 to 6.32 µM)
2 | CCN1CCN(C(=O)N[C@@H](C(=O)N[C@H]2Cc3ccc(F)c(C(=O)O)c3OB2O)c2c(Cl)cc(O)c(O)c2F)C(=O)C1=O (single isomer, unassigned) [Example 207] | > 128 | 2 to 4 (≈ 3.27 to 6.55 µM) | 32 to 64 (≈ 52.4 to 105 µM) | 2 to 4 (≈ 3.27 to 6.55 µM) | 0.25 (≈ 0.409 µM) | 0.5 to 1 (≈ 0.819 to 1.64 µM) | 0.5 to 1 (≈ 0.819 to 1.64 µM) | 2 to 4 (≈ 3.27 to 6.55 µM) | 2 to 4 (≈ 3.27 to 6.55 µM) | 8 to 16 (≈ 13.1 to 26.2 µM) | 2 to 4 (≈ 3.27 to 6.55 µM) | > 128
3 | O=C(NCCCN1CCN(C(=O)NC(C(=O)N[C@H]2Cc3cccc(C(=O)O)c3OB2O)c2ncc(O)cc2F)C(=O)C1=O)c1ccc(O)c(O)c1Cl (stereo partly drawn) [Example 1, (3R)-3-(2-(4-(3-(2-chloro-3,4-dihydroxybenzamido)propyl)-2,3-dioxopiperazine-1-carboxamido)-2-(3-fluoro-5-hydroxypyridin-2-yl)acetamido)-2-hydroxy-3,4-dihydro-2H-benzo[e][1,2]oxaborinine-8-carboxylic acid] |  | 8 to 16 (≈ 10.8 to 21.5 µM) |  | 2 to 4 (≈ 2.69 to 5.38 µM) | 0.5 to 1 (≈ 0.673 to 1.35 µM) |  | 2 to 4 (≈ 2.69 to 5.38 µM) |  |  |  |  | 
4 | C[C@H]1CN(CCNC(=O)c2ccc(O)c(O)c2Cl)C(=O)C(=O)N1C(=O)NC(C(=O)N[C@H]1Cc2cccc(C(=O)O)c2OB1O)c1ncc(O)cc1F (stereo partly drawn) [Example 2, (3R)-3-(2-((S)-4-(2-(2-chloro-3,4-dihydroxybenzamido)ethyl)-6-methyl-2,3-dioxopiperazine-1-carboxamido)-2-(3-fluoro-5-hydroxypyridin-2-yl)acetamido)-2-hydroxy-3,4-dihydro-2H-benzo[e][1,2]oxaborinine-8-carboxylic acid] | 8 to 16 (≈ 10.8 to 21.5 µM) | 2 to 4 (≈ 2.69 to 5.38 µM) | 8 to 16 (≈ 10.8 to 21.5 µM) | 0.25 (≈ 0.337 µM) | 0.25 (≈ 0.337 µM) | 0.5 to 1 (≈ 0.673 to 1.35 µM) | 0.5 to 1 (≈ 0.673 to 1.35 µM) | 2 to 4 (≈ 2.69 to 5.38 µM) | 2 to 4 (≈ 2.69 to 5.38 µM) | 8 to 16 (≈ 10.8 to 21.5 µM) | 32 to 64 (≈ 43.1 to 86.2 µM) | 2 to 4 (≈ 2.69 to 5.38 µM)
5 | O=C(NCCCN1CCN(C(=O)NC(C(=O)N[C@H]2Cc3ccc(F)c(C(=O)O)c3OB2O)c2ncc(O)cc2F)C(=O)C1=O)c1ccc(O)c(O)c1Cl (stereo partly drawn) [Example 3, (3R)-3-(2-(4-(3-(2-chloro-3,4-dihydroxybenzamido)propyl)-2,3-dioxopiperazine-1-carboxamido)-2-(3-fluoro-5-hydroxypyridin-2-yl)acetamido)-7-fluoro-2-hydroxy-3,4-dihydro-2H-benzo[e][1,2]oxaborinine-8-carboxylic acid] | 32 to 64 (≈ 42.1 to 84.1 µM) | 2 to 4 (≈ 2.63 to 5.26 µM) | 32 to 64 (≈ 42.1 to 84.1 µM) | 0.5 to 1 (≈ 0.657 to 1.31 µM) | 0.25 (≈ 0.329 µM) | 8 to 16 (≈ 10.5 to 21 µM) | 32 to 64 (≈ 42.1 to 84.1 µM) | 2 to 4 (≈ 2.63 to 5.26 µM) | 8 to 16 (≈ 10.5 to 21 µM) | 8 to 16 (≈ 10.5 to 21 µM) | 32 to 64 (≈ 42.1 to 84.1 µM) | 32 to 64 (≈ 42.1 to 84.1 µM)
6 | Nc1nc(C(NC(=O)N2CCN(CCNC(=O)c3ccc(O)c(O)c3Cl)C(=O)C2=O)C(=O)N[C@H]2Cc3ccc(F)c(C(=O)O)c3OB2O)c(F)s1 (stereo partly drawn) [Example 4, (3R)-3-(2-(2-amino-5-fluorothiazol-4-yl)-2-(4-(2-(2-chloro-3,4-dihydroxybenzamido)ethyl)-2,3-dioxopiperazine-1-carboxamido)acetamido)-7-fluoro-2-hydroxy-3,4-dihydro-2H-benzo[e][1,2]oxaborinine-8-carboxylic acid] | 32 to 64 (≈ 42.6 to 85.1 µM) | 0.25 (≈ 0.333 µM) | 32 to 64 (≈ 42.6 to 85.1 µM) | 0.25 (≈ 0.333 µM) | 0.25 (≈ 0.333 µM) | 0.25 (≈ 0.333 µM) | 0.5 to 1 (≈ 0.665 to 1.33 µM) | 0.5 to 1 (≈ 0.665 to 1.33 µM) | 0.25 (≈ 0.333 µM) | 0.5 to 1 (≈ 0.665 to 1.33 µM) | 32 to 64 (≈ 42.6 to 85.1 µM) | 2 to 4 (≈ 2.66 to 5.32 µM)
7 | O=C(NCCN1CCN(C(=O)NC(C(=O)N[C@H]2Cc3ccc(F)c(C(=O)O)c3OB2O)c2ncc(O)cc2F)C(=O)C1=O)c1c(F)cc(O)c(O)c1Cl (stereo partly drawn) [Example 5, (3R)-3-(2-(4-(2-(2-chloro-6-fluoro-3,4-dihydroxybenzamido)ethyl)-2,3-dioxopiperazine-1-carboxamido)-2-(3-fluoro-5-hydroxypyridin-2-yl)acetamido)-7-fluoro-2-hydroxy-3,4-dihydro-2H-benzo[e][1,2]oxaborinine-8-carboxylic acid] | 32 to 64 (≈ 41.8 to 83.7 µM) | 0.25 (≈ 0.327 µM) | 2 to 4 (≈ 2.61 to 5.23 µM) | 0.25 (≈ 0.327 µM) | 0.25 (≈ 0.327 µM) | 0.25 (≈ 0.327 µM) | 0.5 to 1 (≈ 0.654 to 1.31 µM) | 0.25 (≈ 0.327 µM) | 0.25 (≈ 0.327 µM) | 0.5 to 1 (≈ 0.654 to 1.31 µM) | 32 to 64 (≈ 41.8 to 83.7 µM) | 2 to 4 (≈ 2.61 to 5.23 µM)
8 | Nc1nc(/C(=N/OC[C@H](NC(=O)c2ccc(O)c(O)c2Cl)C(=O)O)C(=O)N[C@H]2Cc3cccc(C(=O)O)c3OB2O)cs1 [Example 6, (R)-3-((Z)-2-(2-aminothiazol-4-yl)-2-(((S)-2-carboxy-2-(2-chloro-3,4-dihydroxybenzamido)ethoxy)imino)acetamido)-2-hydroxy-3,4-dihydro-2H-benzo[e][1,2]oxaborinine-8-carboxylic acid] | 32 to 64 (≈ 50.5 to 101 µM) | 0.5 to 1 (≈ 0.789 to 1.58 µM) | 32 to 64 (≈ 50.5 to 101 µM) | 0.5 to 1 (≈ 0.789 to 1.58 µM) | 0.25 (≈ 0.394 µM) | 8 to 16 (≈ 12.6 to 25.2 µM) | 32 to 64 (≈ 50.5 to 101 µM) | 0.5 to 1 (≈ 0.789 to 1.58 µM) | 0.5 to 1 (≈ 0.789 to 1.58 µM) | 2 to 4 (≈ 3.16 to 6.31 µM) | 32 to 64 (≈ 50.5 to 101 µM) | 32 to 64 (≈ 50.5 to 101 µM)
9 | NCCN1CCN(C(=O)N[C@@H](C(=O)N[C@H]2Cc3ccc(F)c(C(=O)O)c3OB2O)c2c(F)c(F)c(O)c(O)c2Cl)C(=O)C1=O [Example 226, (R)-3-((R)-2-(4-(2-aminoethyl)-2,3-dioxopiperazine-1-carboxamido)-2-(2-chloro-5,6-difluoro-3,4-dihydroxyphenyl)acetamido)-7-fluoro-2-hydroxy-3,4-dihydro-2H-benzo[e][1,2]oxaborinine-8-carboxylic acid] | 2 to 4 (≈ 3.11 to 6.21 µM) | 0.5 to 1 (≈ 0.777 to 1.55 µM) | 8 to 16 (≈ 12.4 to 24.9 µM) | 2 to 4 (≈ 3.11 to 6.21 µM) | 0.25 (≈ 0.388 µM) | 0.5 to 1 (≈ 0.777 to 1.55 µM) | 0.5 to 1 (≈ 0.777 to 1.55 µM) | 2 to 4 (≈ 3.11 to 6.21 µM) |  | 2 to 4 (≈ 3.11 to 6.21 µM) | 8 to 16 (≈ 12.4 to 24.9 µM) | 8 to 16 (≈ 12.4 to 24.9 µM)
